Among the data in US8461181B2, “Fused heterocyclic compound and use thereof” (Sumitomo Chemical Company, Ltd., priority 2009, dated 2013) are control value and pest or weed control values, retold here.

Holding throughout (format): in vivo
For test [1], the system named is Aphis gossypii. Nature of the test: Test Example 1: spray on cucumber seedling inoculated with Aphis gossypii. Conditions: 500 ppm, 10 ml sprayed on cucumber seedling inoculated with about 30 Aphis gossypii; five days after spraying. The method, then: The formulations of the present active compounds (1) to (15), (17) to (25), (27) to (56), (101) to (103), (105) to (108), (117), (118), (121) to (130), (133) to (144), (147), (148), (152) to (156), (202), (204) to (206), (208), (209), (211) to (213), and (216) to (221) obtained by Formulation Example 5 were diluted with water so that the active ingredient concentration was 500 ppm, to prepare spray solutions for test. Separately, a cucumber seedling (second true leaf spreading stage) planted on a plastic cup was inoculated with about 30 Aphis gossypii, and left for 1 day. The above-described diluted solutions were sprayed each in an amount of 10 ml on this seedling. Five days after spraying, the number of insect of living Aphis gossypii […] on the leaves of this cucumber was checked, and the control value was calculated according to the following formula. Control value (%)={1-(Cb×Tai)/(Cai×Tb)}×100 Letters in the formula represent the following meanings. Cb: the number of insect before treatment on non-treated district Cai: the number of insect in observation on non-treated district Tb: the number of insect before treatment on treated district Tai: the number of insect in observation on treated district

The subject of test [2] is Aphis gossypii. As to the kind of experiment: Test Example 3: root immersion of cucumber seedling, Aphis gossypii. As to conditions: 168 h, cucumber root part immersed in 5 ml, inoculated one day after treatment, checked seven days after. The gist of the method: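 Roots of washed cucumber seedlings (first true leaf stage) immersed in 500 ppm water-diluted formulation; 30 A. gossypii (whole stage) placed on leaves one day later. Living aphids counted seven days after, control value (%) = {1-(Cb×Tai)/(Cai×Tb)}×100 vs non-treated.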

In test [3] the test system is Bemisia tabaci. As to the kind of experiment: Test Example 5: spray on tomato seedling with Bemisia tabaci larvae. As to conditions: 168 h, 10 ml/cup sprayed on tomato seedling with hatching Bemisia tabaci larvae, 7 days at 25° C. How it is done:
The formulations of the present active compounds (1) to (5), (7) to (15), (17) to (21), (25), (28) to (45), (48) to (56), (101) to (103), (106), (107), (117), (118), (121) to (145), (147) to (151), (153) to (155), (204), (206), (208), (209), (211) to (213) and (216) to (221) obtained by Formulation Example 5 were diluted with water so that the active ingredient concentration was 500 ppm, to prepare spray solutions for test. Separately, on a tomato seedling planted on a plastic cup, Bemisia tabaci adult insects were released and allowed to lay eggs for about 24 hours. The tomato seedling was kept in a greenhouse […], and the above-described spray solutions for test were sprayed at a proportion of 10 ml/cup on the condition of hatching of larvae from the laid eggs, and kept in a greenhouse of 25° C. for 7 days. The number of living larvae on the tomato leaves was checked, and the control value was calculated according to the following formula. Control value (%)={1−(Cb×Tai)/(Cai×Tb)}×100 Letters in the formula represent the following meanings. Cb: the number of insect before treatment on non-treated district Cai: the number of insect in observation on non-treated district Tb: the number of insect before treatment on treated district Tai: the number of insect in observation on treated district

The subject of test [4] is Nilaparvata lugens. Nature of the test: Test Example 8: spray on rice seedling, 20 first instar larvae of Nilaparvata lugens. As to conditions: 144 h, 10 ml sprayed on rice seedling, 20 first instar larvae released, 6 days at 25° C. The method, then:
The formulations of the present active compounds (6), (7), (18), (21), (24), (25), (28) to (30), (32), (46), (52), (101) to (103), (105) to (107), (111), (112), (115), (119) to (124), (126) to (130), (133) to (135), (139), (142), (144) to (146), (149) to (151), (153), (154), (216) and (217) obtained by Formulation Example 5 were diluted with water so that the active ingredient concentration was 500 ppm, to prepare spray solutions for test. Separately, on a rice seedling (2 weeks after sowing, second leaf spreading stage) planted on a plastic cup, the drug solutions for test prepared as described above were sprayed each in an amount of 10 ml. After drying of the drug solution sprayed on rice, 20 first instar larvae of Nilaparvata lugens were released, and kept in a greenhouse of 25° C. for 6 days. Thereafter, the number of Nilaparvata lugens […] on rice was checked, and the control value was calculated according to the following formula. Control value (%)={1-(Cb×Tai)/(Cai×Tb)}×100 Letters in the formula represent the following meanings. Cb: the number of insect before treatment on non-treated district Cai: the number of insect in observation on non-treated district Tb: the number of insect before treatment on treated district Tai: the number of insect in observation on treated district

The test system of test [5] is Nilaparvata lugens. Nature of the test: Test Example 9: foot drench of rice seedling, twenty first instar larvae of Nilaparvata lugens. Conditions: soil, 144 h, 5 ml drench at foot of rice seedling, kept 7 days, twenty first instar larvae released, further 6 days. The method, then:
The formulations of the present active compounds (6), (7), (18), (22), (25), (30), (33), (46), (47), (53), (101) to (103), (106), (121) to (124), (126) to (128), (135), (139), (216) and (217) obtained by Formulation Example 5 were diluted with water so that the active ingredient concentration was 500 ppm, to prepare diluted solutions for test. Separately, a rice seedling (2 weeks after sowing, second leaf spreading stage) planted on a plastic cup was drenched at its foot with each 5 ml of the diluted solutions, and kept in a greenhouse of 25° C. for 7 days. Twenty first instar larvae of Nilaparvata lugens were released, and further kept in the greenhouse for 6 days, then, the number of insect of living Nilaparvata lugens […] on rice was checked, and the control value was calculated according to the following formula. Control value (%)={1-(Cb×Tai)/(Cai×Tb)}×100 Letters in the formula represent the following meanings. Cb: the number of insect before treatment on non-treated district Cai: the number of insect in observation on non-treated district Tb: the number of insect before treatment on treated district Tai: the number of insect in observation on treated district

Test [6] has as its system Aphis gossypii. As to the kind of experiment: Test Example 4: foot drench of cucumber seedling in plastic cup, inoculation after 7 days, Aphis gossypii. Conditions: soil, 144 h, 5 ml drench at foot of cucumber seedling in plastic cup, kept 7 days at 25° C., inoculated, further 6 days. The gist of the method:
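Cucumber seedlings at second true leaf stage were soil-drenched with 5 ml of 500 ppm active ingredient and held 7 days at 25° C in greenhouse. Then 30 aphids (all stages) were placed on leaves; live insects counted 6 days later, control value (%) from treated/untreated counts before and after.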

For test [7], the system named is Aphis gossypii. Nature of the test: Test Example 2: foot drench of cucumber seedling on urethane mat, Aphis gossypii. Conditions: soil, 168 h, 5 ml drench at foot of cucumber seedling on urethane mat, inoculated one day after treatment, checked seven days after. How it is done:
The formulations of the present active compounds (4), (5), (8), (9), (11), (12), (14), (15), (17), (20), (35) to (45), (48) to (51), (54) to (56), (206), (209) and (211) to (213) obtained by Formulation Example 5 were diluted with water so that the active ingredient concentration was 500 ppm, to prepare diluted solutions for test. Separately, a cucumber seedling (second true leaf spreading stage) planted on a urethane mat was drenched at its foot with each 5 ml of the diluted solutions, and one day after treatment, the cucumber leaf surface was inoculated with 30 Aphis gossypii (whole stage). Further seven days after, the number of insect of living Aphis gossypii […] on the leaves of this cucumber was checked, and the control value was calculated according to the following formula. Control value (%)={1-(Cb×Tai)/(Cai×Tb)}×100 Letters in the formula represent the following meanings. Cb: the number of insect before treatment on non-treated district Cai: the number of insect in observation on non-treated district Tb: the number of insect before treatment on treated district Tai: the number of insect in observation on treated district

The test system of test [8] is Nilaparvata lugens. Nature of the test: Test Example 7: foot drench of rice seedling, thirty first instar larvae of Nilaparvata lugens. As to conditions: soil, 144 h, 5 ml drench at foot of rice seedling, kept 7 days, thirty first instar larvae released, further 6 days. How it is done:
The formulations of the present active compounds (11), (13) to (15), (17), (23), (26), (35) to (41), (43) to (45), (48) to (51), (54), (55), (209), (211) and (212) obtained by Formulation Example 5 were diluted with water so that the active ingredient concentration was 500 ppm, to prepare diluted solutions for test. Separately, a rice seedling (2 weeks after sowing, second leaf spreading stage) planted on a plastic cup was drenched at its foot with each 5 ml of the diluted solutions, and kept in a greenhouse of 25° C. for 7 days. Thirty first instar larvae of Nilaparvata lugens were released, and further kept in the greenhouse for 6 days. The number of insect of living Nilaparvata lugens […] on rice was checked, and the control value was calculated according to the following formula. Control value (%)={1-(Cb×Tai)/(Cai×Tb)}×100 Letters in the formula represent the following meanings. Cb: the number of insect before treatment on non-treated district Cai: the number of insect in observation on non-treated district Tb: the number of insect before treatment on treated district Tai: the number of insect in observation on treated district

On to `CC(CC(=O)O)n1c(-c2ccncc2)nc2cc(C(F)(F)F)ccc21` (centres unmarked) [comparative compound (B)], for which the control value result in test [1] is “less than 30%”.
Still for that read-out and setting: with `Cc1cc2nc(-c3ccncc3)n(C)c2cc1C` [comparative compound (C)] the entry was “less than 30%”.
One may read the pest or weed control as the degree to which the test organism was suppressed or injured, in per cent. Take `Cn1c(-c2cc[n+]([O-])cc2F)nc2cc(C(F)(F)F)ccc21` [present active compound 25, 2-(3-fluoro-1-oxypyridin-4-yl)-1-methyl-5-trifluoromethyl-1H-benzimidazole]: the pest or weed control at 500 ppm in test [2], in test [3], in test [4] and in test [5] was no less than 90% throughout.
As for `COCCc1cnccc1-c1nc2cc(C(F)(F)F)cnc2n1C` [present active compound 106], the pest or weed control at 500 ppm in test [6], in test [3] and in test [5] was no less than 90% in each case.
Take `CCCCOc1cnccc1-c1nc2cc(C(F)(F)F)ccc2n1C` [present active compound 206, 2-(3-butoxypyridin-4-yl-)-1-methyl-5-trifluoromethyl-1H-benzimidazole]: the pest or weed control at 500 ppm in test [7] and in test [3] was no less than 90% throughout.
Regarding `C=C(CF)Oc1cnccc1-c1nc2cc(C(F)(F)F)ccc2n1C` [present active compound 209, 2-[3-(1-fluoromethyl-vinyloxy)-pyridin-4-yl-]-1-methyl-5-trifluoromethyl-1H-benzimidazole], the pest or weed control at 500 ppm in test [7], in test [3] and in test [8] was no less than 90% each time.
